Assay results from patent publication US11566007B2, “Ras inhibitors” (Revolution Medicines, Inc., priority 2019, dated 2023).
pEC50, pIC50: −log10 of the molar value.

Tests used:
NRAS G12C = NRAS G12C (Homo sapiens (Human), UniProt P01111+P62937, G12C); test: Ras-Raf (BRAF RBD) disruption / FRET / MOA assay, NRAS G12C; type: biochemical; details: read-out: IC50* NRAS G12C FRET data
Outline: (§1)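 Ternary complex formation (Ras–compound–cyclophilin A) displacing BRAF RBD, monitored by TR-FRET. Three hours at 25° C with compound (top 30 μM final), then 1.5 h with the labelled antibodies. Lower ratio than DMSO indicates disruption; IC50 reported.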

K-Ras G13C = K-Ras G13C (Homo sapiens (Human), UniProt P01116+P62937, G13C); test: Ras-Raf (BRAF RBD) disruption / FRET / MOA assay, KRAS G13C; type: biochemical; details: KRAS G13C; Ras-Raf disruption/FRET/MOA assay; read-out: IC50* KRAS G13C FRET data
Outline: as §1

KRAS G12S = KRAS G12S (Homo sapiens (Human), UniProt P01116+P62937, G12S); test: Ras-Raf (BRAF RBD) disruption / FRET / MOA assay, KRAS G12S; type: biochemical; details: Ras-Raf disruption/FRET/MOA assay; class symbols; read-out: KRAS G12S FRET data IC50
Outline: as §1

K-Ras G12C = K-Ras G12C (Homo sapiens (Human), UniProt P01116+P62937, G12C); test: Ras-Raf (BRAF RBD) disruption / FRET / MOA assay, KRAS G12C; type: biochemical; details: KRAS G12C; Ras-Raf disruption/FRET/MOA assay; read-out: IC50* KRAS G12C FRET data
Outline: as §1

KRAS G12V = KRAS G12V (Homo sapiens (Human), UniProt P01116+P62937, G12V); test: Ras-Raf (BRAF RBD) disruption / FRET / MOA assay, KRAS G12V; type: biochemical; details: read-out: IC50* KRAS G12V FRET data
Outline: as §1

KRAS WT = KRAS WT (Homo sapiens (Human), UniProt P01116+P62937); test: Ras-Raf (BRAF RBD) disruption / FRET / MOA assay, KRAS WT; type: biochemical; details: read-out: IC50* KRAS WT FRET data
Outline: as §1

KRAS G13D = KRAS G13D (Homo sapiens (Human), UniProt P01116+P62937, G13D); test: Ras-Raf (BRAF RBD) disruption / FRET / MOA assay, KRAS G13D; type: biochemical; details: read-out: IC50* KRAS G13D FRET data
Outline: as §1

NCI-H358 (K-Ras G12C) = test: CellTiter-Glo cell viability assay, NCI-H358; type: cell-based, human; details: Homo sapiens, NCI-H358, 120 h, NCI-H358, 5-day treatment; class symbols; read-out: Additional H358 Cell Viability assay data (K-Ras G12C, IC50)
Outline: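 Viability of K-Ras mutant lines is measured by ATP luminescence after five days of compound treatment. Percent of DMSO control is calculated and dose-response data are fitted with a four-parameter logistic equation.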

KRAS G12D = KRAS G12D (Homo sapiens (Human), UniProt P01116+P62937, G12D); test: Ras-Raf (BRAF RBD) disruption / FRET / MOA assay, KRAS G12D; type: biochemical; details: Ras-Raf disruption/FRET/MOA assay; class symbols; read-out: KRAS G12D FRET data IC50
Outline: as §1

[1] = test system: NCI-H358 cells (K-Ras G12C); test: Potency assay: pERK in NCI-H358 cells; type: cell-based, human; details: Homo sapiens, NCI-H358; H358 KRAS G12C; read-out: pERK EC50
Outline: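 4 h cpd, 37 °C; 10-pt 3-fold series, 10 mM DMSO top stock, duplicates. Readout pERK: AlphaLISA SureFire Ultra or In-Cell Western (IR-800CW secondary, DRAQ5 DNA stain). IC50, 4-PL fit vs log conc.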

KRAS G12S, sequence (P01116-2 other isoform, or with tags, fused parts or gaps G12S): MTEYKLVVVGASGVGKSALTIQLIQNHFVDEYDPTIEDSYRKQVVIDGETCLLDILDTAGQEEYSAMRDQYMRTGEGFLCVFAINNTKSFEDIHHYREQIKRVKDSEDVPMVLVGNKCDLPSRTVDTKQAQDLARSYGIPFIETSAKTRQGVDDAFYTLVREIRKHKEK
KRAS G12S, sequence (P62937 whole entry): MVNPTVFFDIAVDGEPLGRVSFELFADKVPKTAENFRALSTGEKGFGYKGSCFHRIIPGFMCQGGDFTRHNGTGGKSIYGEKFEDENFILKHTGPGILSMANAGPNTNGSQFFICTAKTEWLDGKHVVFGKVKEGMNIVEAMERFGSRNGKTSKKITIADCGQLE
KRAS G12D, sequence (P01116-2 other isoform, or with tags, fused parts or gaps G12D): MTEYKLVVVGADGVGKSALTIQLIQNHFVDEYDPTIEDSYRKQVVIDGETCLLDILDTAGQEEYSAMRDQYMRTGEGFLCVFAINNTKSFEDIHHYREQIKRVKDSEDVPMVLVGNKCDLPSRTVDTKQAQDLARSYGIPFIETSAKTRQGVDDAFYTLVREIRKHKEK
KRAS G12D, sequence (P62937 whole entry): as the sequence (P62937 whole entry) above
NRAS G12C, sequence (P01111 whole entry G12C): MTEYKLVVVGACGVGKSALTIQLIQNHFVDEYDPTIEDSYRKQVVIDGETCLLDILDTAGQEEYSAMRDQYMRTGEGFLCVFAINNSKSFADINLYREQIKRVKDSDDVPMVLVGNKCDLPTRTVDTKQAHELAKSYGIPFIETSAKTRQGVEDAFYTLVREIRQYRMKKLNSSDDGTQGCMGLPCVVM
NRAS G12C, sequence (P62937 whole entry): as the sequence (P62937 whole entry) above
KRAS WT, sequence (P01116-2 other isoform, or with tags, fused parts or gaps): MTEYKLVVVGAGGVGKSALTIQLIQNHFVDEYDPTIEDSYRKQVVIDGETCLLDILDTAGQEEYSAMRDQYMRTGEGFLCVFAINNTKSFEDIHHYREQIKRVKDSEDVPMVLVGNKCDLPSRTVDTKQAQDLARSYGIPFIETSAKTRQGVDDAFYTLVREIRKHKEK
KRAS WT, sequence (P62937 whole entry): as the sequence (P62937 whole entry) above
K-Ras G13C, sequence (P01116-2 other isoform, or with tags, fused parts or gaps G13C): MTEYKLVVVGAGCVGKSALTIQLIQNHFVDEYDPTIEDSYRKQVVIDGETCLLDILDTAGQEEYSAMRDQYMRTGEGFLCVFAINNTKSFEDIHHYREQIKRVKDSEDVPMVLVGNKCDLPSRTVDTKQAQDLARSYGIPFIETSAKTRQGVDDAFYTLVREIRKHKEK
K-Ras G13C, sequence (P62937 whole entry): as the sequence (P62937 whole entry) above
KRAS G13D, sequence (P01116-2 other isoform, or with tags, fused parts or gaps G13D): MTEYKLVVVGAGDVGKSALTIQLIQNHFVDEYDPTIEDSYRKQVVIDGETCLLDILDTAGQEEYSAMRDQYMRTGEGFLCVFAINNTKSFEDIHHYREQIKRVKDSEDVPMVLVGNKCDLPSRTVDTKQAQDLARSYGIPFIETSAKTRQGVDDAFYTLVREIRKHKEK
KRAS G13D, sequence (P62937 whole entry): as the sequence (P62937 whole entry) above
KRAS G12V, sequence (P01116-2 other isoform, or with tags, fused parts or gaps G12V): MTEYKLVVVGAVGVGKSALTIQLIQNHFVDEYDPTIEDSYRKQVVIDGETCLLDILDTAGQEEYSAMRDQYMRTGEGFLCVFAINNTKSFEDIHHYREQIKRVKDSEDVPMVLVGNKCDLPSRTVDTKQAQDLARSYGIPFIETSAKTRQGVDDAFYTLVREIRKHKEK
KRAS G12V, sequence (P62937 whole entry): as the sequence (P62937 whole entry) above
K-Ras G12C, sequence (P01116-2 other isoform, or with tags, fused parts or gaps G12C): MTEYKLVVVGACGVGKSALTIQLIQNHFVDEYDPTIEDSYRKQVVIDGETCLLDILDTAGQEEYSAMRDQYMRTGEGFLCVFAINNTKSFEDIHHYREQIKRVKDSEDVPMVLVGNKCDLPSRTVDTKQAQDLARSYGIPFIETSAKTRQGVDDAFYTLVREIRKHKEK
K-Ras G12C, sequence (P62937 whole entry): as the sequence (P62937 whole entry) above

Structure (SMILES)	pIC50 (NRAS G12C)	pIC50 (K-Ras G13C)	pIC50 (KRAS G12S)	pIC50 (K-Ras G12C)	pIC50 (KRAS G12V)	pIC50 (KRAS WT)	pIC50 (KRAS G13D)	pIC50 (NCI-H358 (K-Ras G12C))	pIC50 (KRAS G12D)	pEC50 [1]
CCn1c(-c2cccnc2[C@H](C)OC)c2c3cc(ccc31)-c1cc(O)cc(c1)C[C@H](NC(=O)[C@H](C(C)C)N(C)C(=O)C1CN(C(=O)/C=C/CN(C)C)C1)C(=O)N1CCC[C@H](N1)C(=O)OCC(C)(C)C2 (atropisomer, axis not shown) [Example A257]	> 8.00	7.00 to 8.00	6.00 to 7.00	> 8.00	6.00 to 7.00	6.00 to 7.00	6.00 to 7.00	7.00 to 8.00	6.00 to 7.00	> 5.30
C=CC(=O)Nc1csc(C(=O)N(C)[C@H](C(=O)N[C@H]2Cc3cc(O)cc(c3)-c3ccc4c(c3)c(c(-c3cccnc3[C@H](C)OC)n4CC)CC(C)(C)COC(=O)[C@@H]3CCCN(N3)C2=O)C(C)C)n1 (atropisomer, axis not shown) [Example A259]	6.00 to 7.00	7.00 to 8.00	5.00 to 6.00	6.00 to 7.00	5.00 to 6.00	6.00 to 7.00	5.00 to 6.00	6.00 to 7.00	< 5.00	> 5.30
C=CC(=O)N1CCC(C(=O)N(C)[C@H](C(=O)N[C@H]2Cc3cc(O)cc(c3)-c3ccc4c(c3)c(c(-c3cccnc3[C@H](C)OC)n4CC)CC(C)(C)COC(=O)[C@@H]3CCCN(N3)C2=O)C(C)C)CC1 (atropisomer, axis not shown) [Example A260]	7.00 to 8.00	7.00 to 8.00	7.00 to 8.00	7.00 to 8.00	6.00 to 7.00	7.00 to 8.00	7.00 to 8.00	> 8.00	6.00 to 7.00	> 5.30
CCn1c(-c2cccnc2[C@H](C)OC)c2c3cc(ccc31)-c1cc(O)cc(c1)C[C@H](NC(=O)[C@H](C(C)C)N(C)C(=O)N1CCN(C(=O)/C=C/CN(C)C)CC1)C(=O)N1CCC[C@H](N1)C(=O)OCC(C)(C)C2 (atropisomer, axis not shown) [Example A263]	7.00 to 8.00	7.00 to 8.00	6.00 to 7.00	7.00 to 8.00	6.00 to 7.00	7.00 to 8.00	7.00 to 8.00	6.00 to 7.00	6.00 to 7.00	> 5.30
CCn1c(-c2cccnc2[C@H](C)OC)c2c3cc(ccc31)-c1cc(O)cc(c1)C[C@H](NC(=O)[C@H](C(C)C)N(C)C(=O)N1CCCN(C(=O)/C=C/CN(C)C)CC1)C(=O)N1CCC[C@H](N1)C(=O)OCC(C)(C)C2 (atropisomer, axis not shown) [Example A264]	7.00 to 8.00	7.00 to 8.00	7.00 to 8.00	7.00 to 8.00	7.00 to 8.00	7.00 to 8.00	7.00 to 8.00	7.00 to 8.00	7.00 to 8.00	> 5.30
C=CC(=O)N1CCCN(C(=O)N(C)[C@H](C(=O)N[C@H]2Cc3cc(O)cc(c3)-c3ccc4c(c3)c(c(-c3cccnc3[C@H](C)OC)n4CC)CC(C)(C)COC(=O)[C@@H]3CCCN(N3)C2=O)C(C)C)CC1 (atropisomer, axis not shown) [Example A265]	7.00 to 8.00	7.00 to 8.00	7.00 to 8.00	7.00 to 8.00	7.00 to 8.00	7.00 to 8.00	7.00 to 8.00	7.00 to 8.00	7.00 to 8.00	> 5.30
CCn1c(-c2cccnc2[C@H](C)OC)c2c3cc(ccc31)-c1cc(O)cc(c1)C[C@H](NC(=O)[C@H](C(C)C)N1CCC3(CCN(C(=O)/C=C/CN(C)C)CC3)C1=O)C(=O)N1CCC[C@H](N1)C(=O)OCC(C)(C)C2 (atropisomer, axis not shown) [Example A267]	7.00 to 8.00	7.00 to 8.00	6.00 to 7.00	7.00 to 8.00	6.00 to 7.00	6.00 to 7.00	7.00 to 8.00	7.00 to 8.00	5.00 to 6.00	> 5.30
CCn1c(-c2cccnc2[C@H](C)OC)c2c3cc(ccc31)-c1cc(O)cc(c1)C[C@H](NC(=O)[C@H](C(C)C)N1CC[C@]3(CCN(C(=O)/C=C/CN(C)C)C3)C1=O)C(=O)N1CCC[C@H](N1)C(=O)OCC(C)(C)C2 (atropisomer, axis not shown) [Example A268]	> 8.00	7.00 to 8.00	7.00 to 8.00	> 8.00	7.00 to 8.00	7.00 to 8.00	7.00 to 8.00	7.00 to 8.00	7.00 to 8.00	> 5.30
CCn1c(-c2cccnc2[C@H](C)OC)c2c3cc(ccc31)-c1cc(O)cc(c1)C[C@H](NC(=O)[C@H](C(C)C)N1CC[C@@]3(CCN(C(=O)/C=C/CN(C)C)C3)C1=O)C(=O)N1CCC[C@H](N1)C(=O)OCC(C)(C)C2 (atropisomer, axis not shown) [Example A269]	7.00 to 8.00	6.00 to 7.00	6.00 to 7.00	7.00 to 8.00	6.00 to 7.00	6.00 to 7.00	6.00 to 7.00	7.00 to 8.00	6.00 to 7.00	> 5.30
CCn1c(-c2cccnc2[C@H](C)OC)c2c3cc(ccc31)-c1cc(O)cc(c1)C[C@H](NC(=O)[C@H](C(C)C)N1CCC3(CN(C(=O)/C=C/CN(C)C)C3)C1=O)C(=O)N1CCC[C@H](N1)C(=O)OCC(C)(C)C2 (atropisomer, axis not shown) [Example A270]	> 8.00	> 8.00	7.00 to 8.00	> 8.00	6.00 to 7.00	7.00 to 8.00	7.00 to 8.00	7.00 to 8.00	6.00 to 7.00	> 5.30
C/C=C/S(=O)(=O)N1CC[C@H](C(=O)N(C)[C@H](C(=O)N[C@H]2Cc3cc(O)cc(c3)-c3ccc4c(c3)c(c(-c3cccnc3[C@H](C)OC)n4CC)CC(C)(C)COC(=O)[C@@H]3CCCN(N3)C2=O)C(C)C)C1 (atropisomer, axis not shown) [Example A280]	6.00 to 7.00	7.00 to 8.00	6.00 to 7.00	7.00 to 8.00	6.00 to 7.00	7.00 to 8.00	6.00 to 7.00	7.00 to 8.00	5.00 to 6.00	> 5.30
CC#CC(=O)N1CC[C@H](C(=O)N(C)[C@H](C(=O)N[C@H]2Cc3nc(ns3)-c3ccc4c(c3)c(c(-c3cccnc3[C@H](C)OC)n4CC)CC(C)(C)COC(=O)[C@@H]3CCCN(N3)C2=O)C(C)C)C1 (atropisomer, axis not shown) [Example A289]	5.00 to 6.00	5.00 to 6.00	< 5.00	5.00 to 6.00	5.00 to 6.00	< 5.00	< 5.00	6.00 to 7.00	< 5.00	> 5.30
